Measured values as given in patent US9546164B2 (GENENTECH, INC., priority 2013, dated 2017).
Counter-ions that a name gives are not always drawn.

What follows are molecules tested against hNav1.7 (Homo sapiens (Human), UniProt Q15858) (assay: Tritiated sulfonamide competitive binding to membranes from cells expressing hNav1.7 and the β1 subunit). Details: not given.
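Note: Filter-bound radioactivity counted by liquid scintillation, nonspecific binding defined with excess unlabelled ligand, IC50 fitted to percent inhibition of specific binding.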

hNav1.7, sequence (Q15858 other isoform, or with tags, fused parts or gaps): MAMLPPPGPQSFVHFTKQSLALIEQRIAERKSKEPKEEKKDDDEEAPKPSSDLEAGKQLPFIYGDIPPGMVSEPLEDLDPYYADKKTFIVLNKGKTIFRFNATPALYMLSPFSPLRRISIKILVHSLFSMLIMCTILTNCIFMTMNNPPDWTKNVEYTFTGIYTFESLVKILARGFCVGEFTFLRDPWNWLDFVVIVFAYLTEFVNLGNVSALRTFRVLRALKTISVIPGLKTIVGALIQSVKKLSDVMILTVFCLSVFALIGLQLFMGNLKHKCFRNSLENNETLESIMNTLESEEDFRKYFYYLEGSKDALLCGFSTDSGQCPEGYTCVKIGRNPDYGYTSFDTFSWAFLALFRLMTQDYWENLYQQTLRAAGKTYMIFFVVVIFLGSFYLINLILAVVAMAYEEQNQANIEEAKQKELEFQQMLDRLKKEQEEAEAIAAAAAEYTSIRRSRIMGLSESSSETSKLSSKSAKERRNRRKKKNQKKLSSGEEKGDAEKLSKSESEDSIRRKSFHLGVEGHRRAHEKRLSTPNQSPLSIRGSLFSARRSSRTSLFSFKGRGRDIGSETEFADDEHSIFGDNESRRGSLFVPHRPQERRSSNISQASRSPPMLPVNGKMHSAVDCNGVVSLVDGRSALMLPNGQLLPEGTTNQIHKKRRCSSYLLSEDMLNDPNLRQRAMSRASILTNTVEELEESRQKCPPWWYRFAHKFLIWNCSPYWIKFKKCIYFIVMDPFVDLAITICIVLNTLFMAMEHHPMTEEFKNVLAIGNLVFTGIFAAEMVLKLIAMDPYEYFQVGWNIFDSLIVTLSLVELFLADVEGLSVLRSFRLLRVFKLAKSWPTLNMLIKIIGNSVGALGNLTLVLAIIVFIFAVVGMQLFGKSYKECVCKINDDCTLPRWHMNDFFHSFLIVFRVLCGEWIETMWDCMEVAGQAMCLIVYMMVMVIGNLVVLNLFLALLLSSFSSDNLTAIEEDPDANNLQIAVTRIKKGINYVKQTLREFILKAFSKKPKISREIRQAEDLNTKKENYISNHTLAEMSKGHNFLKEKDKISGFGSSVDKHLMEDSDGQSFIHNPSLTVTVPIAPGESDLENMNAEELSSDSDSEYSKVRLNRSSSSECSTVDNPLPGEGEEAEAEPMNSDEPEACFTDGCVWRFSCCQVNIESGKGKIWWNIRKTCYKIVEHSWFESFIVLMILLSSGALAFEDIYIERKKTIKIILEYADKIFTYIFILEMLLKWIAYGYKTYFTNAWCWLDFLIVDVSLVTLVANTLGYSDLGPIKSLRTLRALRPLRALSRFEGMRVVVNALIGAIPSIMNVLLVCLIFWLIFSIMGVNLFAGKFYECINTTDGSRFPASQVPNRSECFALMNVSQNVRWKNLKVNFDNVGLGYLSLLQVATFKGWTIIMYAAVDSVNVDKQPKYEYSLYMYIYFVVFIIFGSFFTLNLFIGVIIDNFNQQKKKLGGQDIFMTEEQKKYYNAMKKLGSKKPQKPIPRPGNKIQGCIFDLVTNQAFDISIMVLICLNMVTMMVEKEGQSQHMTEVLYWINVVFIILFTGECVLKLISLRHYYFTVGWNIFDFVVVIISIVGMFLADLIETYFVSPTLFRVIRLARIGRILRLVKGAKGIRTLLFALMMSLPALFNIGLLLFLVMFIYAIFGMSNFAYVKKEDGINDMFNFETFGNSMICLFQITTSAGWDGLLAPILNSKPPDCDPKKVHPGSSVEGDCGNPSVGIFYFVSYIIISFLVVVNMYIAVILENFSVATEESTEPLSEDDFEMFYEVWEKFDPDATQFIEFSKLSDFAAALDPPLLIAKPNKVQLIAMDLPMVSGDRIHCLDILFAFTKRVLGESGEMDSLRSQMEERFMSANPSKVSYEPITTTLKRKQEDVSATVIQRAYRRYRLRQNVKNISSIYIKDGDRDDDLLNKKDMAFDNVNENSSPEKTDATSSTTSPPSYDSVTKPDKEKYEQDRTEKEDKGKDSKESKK
hNav1.7, sequence (Q07699 19-218 partner): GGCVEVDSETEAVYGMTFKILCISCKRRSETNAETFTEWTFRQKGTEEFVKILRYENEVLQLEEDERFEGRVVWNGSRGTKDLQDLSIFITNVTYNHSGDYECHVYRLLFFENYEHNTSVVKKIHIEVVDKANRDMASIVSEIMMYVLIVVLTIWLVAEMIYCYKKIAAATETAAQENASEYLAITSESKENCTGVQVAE

Point of comparison: `C[C@H](c1cc(Cl)cc(Cl)c1)N1CCN(Cc2cc(F)c(C(=O)NS(=O)(=O)C3CC3)cc2C2CC2)C[C@@H]1C` [Example 566, 5-cyclopropyl-N-(cyclopropylsulfonyl)-4-(((S)-4-((R)-1-(3,5-dichlorophenyl)ethyl)-3-methylpiperazin-1-yl)methyl)-2-fluorobenzamide], IC50 2.7 nM. Against it:
- C[C@H]1CN(Cc2cc(F)c(C(=O)NS(C)(=O)=O)cc2C2CC2)CCN1[C@@H](C)c1cc(Cl)cc(Cl)c1 [Example 567, 5-cyclopropyl-4-(((S)-4-((S)-1-(3,5-dichlorophenyl)ethyl)-3-methylpiperazin-1-yl)methyl)-2-fluoro-N-(methylsulfonyl)benzamide] — 5.6-fold higher, 15.2 nM
- CS(=O)(=O)NC(=O)c1cc(C2CC2)c(CN2CCC(OCc3cc(Cl)cc(Cl)c3)CC2)cc1F [Example 511, 5-cyclopropyl-4-((4-((3,5-dichlorobenzyl)oxy)piperidin-1-yl)methyl)-2-fluoro-N-(methylsulfonyl)benzamide, trifluoroacetic acid salt] — 8.7-fold higher, 23.5 nM
- O=C(NS(=O)(=O)N1CCC1)c1cc(C2CC2)c(O[C@@H]2CCCN(Cc3ccccc3Cl)C2)cc1F [Example 25, (R)—N-(azetidin-1-ylsulfonyl)-4-((1-(2-chlorobenzyl)piperidin-3-yl)oxy)-5-cyclopropyl-2-fluorobenzamide] — within 1.5-fold, 3.2 nM
- O=C(NS(=O)(=O)C1CC1)c1cc(C2CC2)c(O[C@@H]2CCCN(Cc3ccccc3Cl)C2)cc1F [Example 23, (R)-4-((1-(2-chlorobenzyl)piperidin-3-yl)oxy)-5-cyclopropyl-N-(cyclopropylsulfonyl)-2-fluorobenzamide] — 1.6-fold lower, 1.7 nM
- O=C(NS(=O)(=O)N1CCC1)c1cc(C2CC2)c(O[C@@H]2CCCN(Cc3ccc(F)cc3F)C2)cc1F [Example 8, (R)—N-(azetidin-1-ylsulfonyl)-5-cyclopropyl-4-((1-(2,4-difluorobenzyl)-piperidin-3-yl)oxy)-2-fluorobenzamide] — 3-fold higher, 8.1 nM

Same assay, conditions: read-out: Ligand Binding Assay; 100 pM [3H]compound, membranes with hNav1.7 and β1 subunit, 18 h, room temperature

Point of comparison: `O=C(NS(=O)(=O)C1CC1)c1cc(C2CC2)c(OCC2(F)CCN(Cc3cc(C(F)(F)F)cc(Cl)c3F)CC2)cc1F` [Example 347, 4-((1-(3-chloro-2-fluoro-5-(trifluoromethyl)benzyl)-4-fluoropiperidin-4-yl)methoxy)-5-cyclopropyl-N-(cyclopropylsulfonyl)-2-fluorobenzamide, trifluoroacetic acid salt], IC50 6.3 nM. Against it:
- CS(=O)(=O)NC(=O)c1cc(C2CC2)c(OCC2CCN(Cc3ccc(F)c(F)c3)CC2)cc1F [Example 160, 5-Cyclopropyl-4-((1-(3,4-difluorobenzyl)piperidin-4-yl)methoxy)-2-fluoro-N-(methylsulfonyl)benzamide] — 10-fold higher, 62.8 nM
- CC1(COc2cc(F)c(C(=O)NS(=O)(=O)C3CC3)cc2C2CC2)CN(c2cc(Cl)ncc2C(F)(F)F)C1 [Example 487, 4-((1-(2-chloro-5-(trifluoromethyl)pyridin-4-yl)-3-methylazetidin-3-yl)methoxy)-5-cyclopropyl-N-(cyclopropylsulfonyl)-2-fluorobenzamide, trifluoroacetic acid salt] — 2.1-fold higher, 13.5 nM
- CS(=O)(=O)NC(=O)c1cc(C2CC2)c(OCC2CCN(S(=O)(=O)c3cc(Cl)cc(Cl)c3)CC2)cc1F [Example 273, 5-Cyclopropyl-4-((1-((3,5-dichlorophenyl)sulfonyl)piperidin-4-yl)methoxy)-2-fluoro-N-(methylsulfonyl)benzamide] — within 1.5-fold, 8.5 nM
- O=C(NS(=O)(=O)C1CC1)c1cc(C2CC2)c(CN2CCC(OCc3ccc(F)cc3Cl)CC2)cc1F [Example 480, 4-((4-((2-chloro-4-fluorobenzyl)oxy)piperidin-1-yl)methyl)-5-cyclopropyl-N-(cyclopropylsulfonyl)-2-fluorobenzamide, trifluoroacetic acid salt] — 3.5-fold higher, 21.8 nM
- CS(=O)(=O)NC(=O)c1cc(C2CC2)c(OCC2CCN(Cc3ccc(Br)cc3F)CC2)cc1F [Example 589, 4-((1-(4-bromo-2-fluorobenzyl)piperidin-4-yl)methoxy)-5-cyclopropyl-2-fluoro-N-(methylsulfonyl)benzamide] — 1.7-fold higher, 11 nM
- CC(C)Nc1ccc(F)cc1CN1CCC(COc2cc(F)c(C(=O)NS(=O)(=O)C3CC3)cc2C2CC2)CC1 [Example 356, 5-cyclopropyl-N-(cyclopropylsulfonyl)-2-fluoro-4-((1-(5-fluoro-2-(isopropylamino)benzyl)piperidin-4-yl)methoxy)benzamide, trifluoroacetic acid salt] — within 1.5-fold, 5.8 nM
- Cn1nc(C(F)(F)F)c(CN2CCC(COc3cc(F)c(C(=O)NS(=O)(=O)C4CC4)cc3C3CC3)CC2)c1Cl [Example 357, 4-((1-((5-chloro-1-methyl-3-(trifluoromethyl)-1H-pyrazol-4-yl)methyl)piperidin-4-yl)methoxy)-5-cyclopropyl-N-(cyclopropylsulfonyl)-2-fluorobenzamide, trifluoroacetic acid salt] — 2.1-fold higher, 13 nM
- O=C(NS(=O)(=O)N1CCC1)c1cc(C2CC2)c(OCC2CCN(CCC(F)(F)F)CC2)cc1F [Example 194, N-(azetidin-1-ylsulfonyl)-5-cyclopropyl-2-fluoro-4-((1-(3,3,3-trifluoropropyl)piperidin-4-yl)methoxy)benzamide] — 29-fold higher, 180 nM
- CS(=O)(=O)NC(=O)c1cc(C2CC2)c(OCC2CN(Cc3ccc(C(F)(F)F)c(F)c3)C2)cc1F [Example 76, 5-cyclopropyl-2-fluoro-4-((1-(3-fluoro-4-(trifluoromethyl)benzyl)azetidin-3-yl)methoxy)-N-(methylsulfonyl)benzamide] — 6.7-fold higher, 42 nM
- Cc1cc(C)cc(CN2CCC[C@@H](Oc3cc(F)c(C(=O)NS(C)(=O)=O)cc3C3CC3)C2)c1 [Example 436, (R)-5-cyclopropyl-4-((1-(3,5-dimethylbenzyl)piperidin-3-yl)oxy)-2-fluoro-N-(methylsulfonyl)benzamide, trifluoroacetic acid salt] — within 1.5-fold, 5.4 nM
- C[C@H](c1ccc(F)cc1Cl)N1C[C@H](Oc2cc(F)c(C(=O)NS(C)(=O)=O)cc2C2CC2)CC(C)(C)C1 [Example 452, 4-(((R)-1-((R)-1-(2-chloro-4-fluorophenyl)ethyl)-5,5-dimethylpiperidin-3-yl)oxy)-5-cyclopropyl-2-fluoro-N-(methylsulfonyl)benzamide, trifluoroacetic acid salt] — 6.9-fold higher, 43.2 nM
- CS(=O)(=O)NC(=O)c1cc(C2CC2)c(CN2CCO[C@H](Cc3ccc(F)cc3Cl)C2)cc1F [Example 466, (R)-4-((2-(2-chloro-4-fluorobenzyl)morpholino)methyl)-5-cyclopropyl-2-fluoro-N-(methylsulfonyl)benzamide, trifluoroacetic acid salt] — within 1.5-fold, 7.3 nM
- CS(=O)(=O)NC(=O)c1cc(C2CC2)c(OCC2CCN(c3cc(C(F)(F)F)c(Cl)cn3)CC2)cc1F [Example 554, 4-((1-(5-chloro-4-(trifluoromethyl)pyridin-2-yl)piperidin-4-yl)methoxy)-5-cyclopropyl-2-fluoro-N-(methylsulfonyl)benzamide] — 2-fold lower, 3.2 nM
- CS(=O)(=O)NC(=O)c1cc(C2CC2)c(OCC2CCN(Cc3ccc(OC(F)(F)F)cc3)CC2)cc1F [Example 135] — 2.5-fold higher, 15.5 nM
- O=C(NS(=O)(=O)C1CC1)c1cc(C2CC2)c(OCC2CCN(S(=O)(=O)c3cc(Cl)c(Br)cc3F)CC2)cc1F [Example 367, 4-((1-((4-bromo-5-chloro-2-fluorophenyl)sulfonyl)piperidin-4-yl)methoxy)-5-cyclopropyl-N-(cyclopropylsulfonyl)-2-fluorobenzamide] — within 1.5-fold, 8.3 nM
- C[C@H]1CC[C@@H](Oc2cc(F)c(C(=O)NS(C)(=O)=O)cc2C2CC2)CN1Cc1ccc(F)cc1Cl [Example 324, 4-(((3R,6S)-1-(2-chloro-4-fluorobenzyl)-6-methylpiperidin-3-yl)oxy)-5-cyclopropyl-2-fluoro-N-(methylsulfonyl)benzamide] — 2.3-fold lower, 2.7 nM
- CS(=O)(=O)NC(=O)c1cc(C2CC2)c(CN2[C@@H]3CC[C@H]2CC(Oc2cc(C(F)(F)F)cc(Cl)c2F)C3)cc1F (stereo partly drawn) [Example 471, 4-(((1R,3r,5S)-3-(3-chloro-2-fluoro-5-(trifluoromethyl)phenoxy)-8-azabicyclo[3.2.1]octan-8-yl)methyl)-5-cyclopropyl-2-fluoro-N-(methylsulfonyl)benzamide 2,2,2-trifluoroacetate] — 1.7-fold lower, 3.7 nM
- CS(=O)(=O)NC(=O)c1cc(C2CC2)c(OCC2CCN(Cc3cnc(OCC(F)(F)F)c(Cl)c3)CC2)cc1F [Example 190, 4-((1-((5-Chloro-6-(2,2,2-trifluoroethoxy)pyridin-3-yl)methyl)piperidin-4-yl)methoxy)-5-cyclopropyl-2-fluoro-N-(methylsulfonyl)benzamide] — 8.9-fold higher, 56 nM
- CC1(COc2cc(F)c(C(=O)NS(C)(=O)=O)cc2C2CC2)CCN(Cc2cc(Cl)cc(C(F)(F)F)c2)CC1 [Example 140, 4-((1-(3-chloro-5-(trifluoromethyl)benzyl)-4-methylpiperidin-4-yl)methoxy)-5-cyclopropyl-2-fluoro-N-(methylsulfonyl)benzamide] — 1.8-fold lower, 3.5 nM
- CCS(=O)(=O)NC(=O)c1cc(C2CC2)c(OCC2CCN([C@@H](C)c3ccc(Cl)cc3Cl)CC2)cc1F [Example 285, (S)-5-cyclopropyl-4-((1-(1-(2,4-dichlorophenyl)ethyl)piperidin-4-yl)methoxy)-N-(ethylsulfonyl)-2-fluorobenzamide] — 1.9-fold lower, 3.3 nM
- CC(C)N(C(=O)CN1CCC(COc2cc(F)c(C(=O)NS(C)(=O)=O)cc2C2CC2)CC1)C(C)C [Example 180, 5-Cyclopropyl-4-((1-(2-(diisopropylamino)-2-oxoethyl)piperidin-4-yl)methoxy)-2-fluoro-N-(methylsulfonyl)benzamide] — 1600-fold higher, 9900 nM
- CS(=O)(=O)NC(=O)c1cc(C2CC2)c(OCC2CN(Cc3cc(F)cc(Cl)c3)C2)cc1F [Example 75, 4-((1-(3-chloro-5-fluorobenzyl)azetidin-3-yl)methoxy)-5-cyclopropyl-2-fluoro-N-(methylsulfonyl)benzamide] — 12-fold higher, 74 nM
- CS(=O)(=O)NC(=O)c1cc(C2CC2)c(OC[C@H]2CCCN(Cc3ccc(F)cc3Cl)C2)cc1F [Example 335, (S)-4-((1-(2-chloro-4-fluorobenzyl)piperidin-3-yl)methoxy)-5-cyclopropyl-2-fluoro-N-(methylsulfonyl)benzamide] — 2.3-fold higher, 14.3 nM
